According to the CheMixHub viscosity set:
± gives the uncertainty stated by the source.

Test: xn = mol fraction of the nth substance listed

CC(C)CO + c1ccccc1
303 K, 101.3 kPa
Conditions	viscosity [mPa·s]
x2 = 0.1012	2.322 ± 0.068
x2 = 0.2055	1.88 ± 0.059
x2 = 0.3024	1.551 ± 0.052
x2 = 0.4124	1.26 ± 0.047
x2 = 0.511	1.057 ± 0.043
x2 = 0.6016	0.9052 ± 0.041
x2 = 0.706	0.7704 ± 0.039
x2 = 0.8037	0.6783 ± 0.038
x2 = 0.8987	0.6131 ± 0.037

CCOC(=O)CC + c1ccccc1
viscosity [mPa·s], 101.3 kPa
Conditions	308.15 K	318.15 K
x1 = 0.0521	0.53 ± 0.005	0.47 ± 0.004
x1 = 0.0984	0.525 ± 0.005	0.47 ± 0.004
x1 = 0.2018	0.513 ± 0.005	0.469 ± 0.004
x1 = 0.3029	0.503 ± 0.005	0.468 ± 0.004
x1 = 0.4009	0.495 ± 0.005	0.465 ± 0.004
x1 = 0.4991	0.487 ± 0.004	0.462 ± 0.004
x1 = 0.5982	0.481 ± 0.004	0.459 ± 0.004
x1 = 0.7114	0.475 ± 0.004	0.453 ± 0.004
x1 = 0.8042	0.472 ± 0.004	0.448 ± 0.004
x1 = 0.8989	0.469 ± 0.004	0.443 ± 0.004
x1 = 0.92	0.468 ± 0.004	0.441 ± 0.004

Cc1ccccc1O + c1ccccc1
viscosity [mPa·s]
Conditions	298.15 K	308.15 K	318.15 K	323.15 K
101 kPa, x1 = 0.1176	–	0.641 ± 0.0055	–	–
101 kPa, x1 = 0.2203	–	0.7752 ± 0.0065	–	–
101 kPa, x1 = 0.3357	–	0.9753 ± 0.008	–	–
101 kPa, x1 = 0.4352	–	1.164 ± 0.0094	–	–
101 kPa, x1 = 0.5693	–	1.535 ± 0.012	–	–
101 kPa, x1 = 0.6728	–	2.109 ± 0.016	–	–
101 kPa, x1 = 0.7757	–	2.775 ± 0.021	–	–
101 kPa, x1 = 0.896	–	3.774 ± 0.028	–	–
101.33 kPa, x1 = 0.1	0.704 ± 0.019	0.609 ± 0.016	0.531 ± 0.014	0.497 ± 0.013
101.33 kPa, x1 = 0.2	0.849 ± 0.023	0.727 ± 0.02	0.623 ± 0.017	0.578 ± 0.016
101.33 kPa, x1 = 0.4	1.319 ± 0.036	1.073 ± 0.029	0.894 ± 0.024	0.815 ± 0.022
101.33 kPa, x1 = 0.5	1.661 ± 0.045	1.334 ± 0.036	1.084 ± 0.03	0.981 ± 0.027
101.33 kPa, x1 = 0.6	2.148 ± 0.059	1.668 ± 0.046	1.331 ± 0.036	1.186 ± 0.032
101.33 kPa, x1 = 0.8	3.874 ± 0.11	2.766 ± 0.077	2.067 ± 0.057	1.807 ± 0.049

Cc1ccccc1O + c1ccncc1
viscosity [mPa·s], 101 kPa
Conditions	x1 = 0.09109	x1 = 0.1923	x1 = 0.2702	x1 = 0.3823	x1 = 0.4812	x1 = 0.5958	x1 = 0.7186	x1 = 0.8145	x1 = 0.8918
293.15 K	1.176 ± 0.012	1.556 ± 0.015	1.983 ± 0.019	2.962 ± 0.03	4.455 ± 0.048	6.845 ± 0.081	9.26 ± 0.12	10.04 ± 0.14	10.01 ± 0.14
303.15 K	1.022 ± 0.01	1.35 ± 0.013	1.724 ± 0.017	2.56 ± 0.025	3.625 ± 0.036	4.935 ± 0.054	6.23 ± 0.072	6.565 ± 0.078	6.45 ± 0.078
313.15 K	0.886 ± 0.009	1.148 ± 0.011	1.436 ± 0.014	2.045 ± 0.02	2.75 ± 0.027	3.575 ± 0.036	4.29 ± 0.044	4.415 ± 0.046	4.325 ± 0.045
